A value given as a limit tells only on which side of the number the result lay.

These results are taken from patent US11332438B2, “Creatine prodrugs, compositions and methods of use thereof” (Ultragenyx Pharmaceutical Inc., priority 2017, dated 2022).

The nature of data set [1]: Plasma stability, human plasma. In kind it is in vitro ADME. The settings on record: Table 2A, 37 °C, read-out: Plasma Stability Human t1/2. The procedure, abridged: (§1)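 Test article, 1 µM final (from 10% DMSO/water), incubated at 37 °C in plasma adjusted to pH 7.4 if needed; samples at 0, 2, 5, 15 and 30 min quenched with ice-cold 80% acetonitrile. Remaining compound by LC-MS/MS; half-life in minutes calculated.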

Data set [2] in a line: Plasma stability, mouse plasma. In kind it is in vitro ADME. As to conditions: Table 2A, 37 °C, read-out: Plasma Stability Mouse t1/2. In a few lines: as §1
The nature of data set [3]: Liver microsome stability, human. It counts as in vitro ADME. As to conditions: liver microsomes, pH 7.4, Table 2A, read-out: Microsome Stability Human t1/2. The procedure, abridged:
(§2)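 Test compound incubated with mouse or human liver microsomes and NADPH in 0.1 M potassium phosphate, 1.0 mM EDTA, pH 7.4, with a 60-min no-NADPH control. Samples quenched with ACN containing internal standard at 0, 5, 10, 20, 30 and 60 min, then analysed by LC/MS.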
(Liver microsomes are a subcellular fraction often used to study metabolism.)

Data set [4] can be described thus: Liver microsome stability, mouse. In kind it is in vitro ADME. As to conditions: liver microsomes, pH 7.4, Table 2A, read-out: Microsome Stability Mouse t1/2. The procedure, abridged:
as §2

Data set [5] can be described thus: Chemical stability in phosphate buffered saline (PBS). The settings on record: 50 μM prodrug. It counts as physicochemical. In a few lines:
(§3)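 Incubations used 50 μM compound at 37 °C in phosphate buffered saline, fasted simulated intestinal fluid without pancreatin, or fasted simulated gastric fluid without pepsin.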

A short description of data set [6]: Chemical stability in simulated gastric fluid (SGF) without pepsin. It counts as physicochemical. The settings on record: 50 μM prodrug. The procedure, abridged:
as §3

The subject of data set [7] is ARPE-19 cells. As to the kind of experiment: Creatine prodrug uptake and d3-creatine release in ARPE-19 cells (Table 4A). It counts as cell-based, human. The settings on record: 50 μM, 6 h, cytosol fraction, corrected for total protein. On the procedure:
At the end of the incubation, supernatant will be collected from each well to assess prodrug recovery. Cells are then washed 3× with PBS. Plates, prodrugs in supernatant, prodrugs in serum-free medium are stored at −80° C. until harvest (within 5 days). On the day of extraction, 130 uL of lysis buffer (10 mM Tris pH 7.4) with EDTA-free protease inhibitors is added to each well and cells are removed using a cell scraper. Lysates are further homogenized using a handheld pestle and then centrifuged at 16,000 g, […], for 10 minutes to collect cytosol fraction. Pellets will be stored at −80° C. until further analysis. A 4× volume of stop solution (80% ACN/20% water) will be added to the cytosol fraction, supernatant and medium. Samples will be centrifuged at 15,890 g (13,000 rpm) at 4° C. for 10 mins. Supernatant will be collected and stored at −80° C. within 5 days prior to LC-MS/MS analysis. Dosing solutions for each prodrug (10 μM) will be assayed to verify concentration. Cells alone with vehicle will serve as controls to assess background signal for LC-MS/MS. Two independent runs of experiment will be conducted.
Nine fatty acid amide creatine prodrugs were tested in human ARPE-19 cells to assess prodrug uptake and d3-Cr release inside the cells. 50 μM of prodrug was incubated in culture medium with the cells and the cells were harvested at 6 h. Quantitation of prodrugs, d3-Cr (d3-creatine) and d3-Cm (d3-creatinine) in the cytosol fraction was corrected for total protein concentration.

Take `Cl.[H]/N=C(/NC(=O)CCCCCCC/C=C\CCCCCCCC)N(CC(=O)OCCCCCCC)C([2H])([2H])[2H]` [Compound 2, (Z)-heptyl 2-(1-trideuteriomethyl-3-oleoylguanidino)acetate Hydrochloride]: the half-life in data set [1] and in data set [2] was less than 5 min in each case. In addition, the half-life at 10 μM in data set [3] stood at 6 min; in data set [4], 7 min. Moreover, the “Chemical Stability PBS % T0 at 2 hours at 37 °C.” value (“Chemical Stability PBS % T0” for short) in data set [5] (Table 2A) came out at 61%. Moreover, the “Chemical Stability SGF, no enzyme % T0 at 2 hours at 37 °C.” value (from here on “Chemical Stability SGF, no enzyme % T0”) in data set [6] (Table 2A) is given as 81%. Besides, the “prodrug, Cellular Uptake” value in data set [7] is reported as “BQL”.
On to `Cl.[2H]C([2H])([2H])N(CC(=O)OCC)C(=N)NC(=O)CCCCCCCCCC` [Compound 8], for which the half-life in data set [1] and in data set [2] was less than 5 min in each case. In addition, the half-life at 10 μM in data set [3] and in data set [4] was less than 5 min each time. Also, the “Chemical Stability PBS % T0” value in data set [5] (Table 2A) and in data set [5] (Table 2B) was 0% throughout. Moreover, the “Chemical Stability SGF, no enzyme % T0” value is recorded as 117% in data set [6] (Table 2A) and 95% in data set [6] (Table 2B).
With `Cl.[2H]C([2H])([2H])N(CC(=O)OCCCCCCC)C(=N)NC(=O)CCCCCCCCCCCC` [Compound 11], the half-life in data set [1] and in data set [2] was less than 5 min in each case. Moreover, the half-life at 10 μM in data set [3] and in data set [4] was less than 5 min throughout. Besides, the “Chemical Stability PBS % T0” value in data set [5] (Table 2A) turned out to be 42%. Also, the “Chemical Stability SGF, no enzyme % T0” value in data set [6] (Table 2A) is given as 76%. Moreover, in data set [7], the “prodrug, Cellular Uptake” value was “BQL”.
